From PubChem BioAssay AID1963828 (Molecular Pharmacology Branch, DTP, NCI, 2024)

System: 991263-137-R1-J2-PDC complex spheroid viability
Experiment: Anticancer human tumor 991263-137-R1-J2-PDC patient-derived colon adenocarcinoma cell line growth inhibition [POLQ]
Details: for IC50: curve of first compound; for viability, T/C: stronger effect = lower value
Method in brief: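 Patient-derived tumour cells were co-cultured with HUVEC and mesenchymal stem cells as multicellular spheroids at 37 °C. They were treated with POLQ inhibitors (novobiocin, ART-558, RP6685) alone or combined with other agents. Top concentrations were at or near clinical Cmax (otherwise 10 microM; SN-38 at 1 microM), decreasing in half-log steps.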

[1] = second compound 0.0316 µM, first compound 0.00316 µM
[2] = second compound 0.0316 µM, first compound 0.01 µM
[3] = second compound 0.0316 µM, first compound 0.0316 µM
[4] = second compound 0.0316 µM, first compound 0.1 µM
[5] = second compound 0.0316 µM, first compound 0.316 µM
[6] = second compound 0.0316 µM, first compound 1 µM
[7] = second compound 0.1 µM, first compound 0.00316 µM
[8] = second compound 0.1 µM, first compound 0.01 µM
[9] = second compound 0.1 µM, first compound 0.0316 µM
[10] = second compound 0.1 µM, first compound 0.1 µM
[11] = second compound 0.1 µM, first compound 0.316 µM
[12] = second compound 0.1 µM, first compound 1 µM
[13] = second compound 0.316 µM, first compound 0.00316 µM
[14] = second compound 0.316 µM, first compound 0.01 µM
[15] = second compound 0.316 µM, first compound 0.0316 µM
[16] = second compound 0.316 µM, first compound 0.1 µM
[17] = second compound 0.316 µM, first compound 0.316 µM
[18] = second compound 0.316 µM, first compound 1 µM
[19] = second compound 1 µM, first compound 0.00316 µM
[20] = second compound 1 µM, first compound 0.01 µM
[21] = second compound 1 µM, first compound 0.0316 µM
[22] = second compound 1 µM, first compound 0.1 µM
[23] = second compound 1 µM, first compound 0.316 µM
[24] = second compound 1 µM, first compound 1 µM
[25] = second compound 3.16 µM, first compound 0.00316 µM
[26] = second compound 3.16 µM, first compound 0.01 µM
[27] = second compound 3.16 µM, first compound 0.0316 µM
[28] = second compound 3.16 µM, first compound 0.1 µM
[29] = second compound 3.16 µM, first compound 0.316 µM
[30] = second compound 3.16 µM, first compound 1 µM
[31] = second compound 10 µM, first compound 0.00316 µM
[32] = second compound 10 µM, first compound 0.01 µM
[33] = second compound 10 µM, first compound 0.0316 µM
[34] = second compound 10 µM, first compound 0.1 µM
[35] = second compound 10 µM, first compound 0.316 µM
[36] = second compound 10 µM, first compound 1 µM
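Further: spheroids exposed to compounds for 7 days before readout.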
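Wherever viability, T/C is given: 100% = DMSO vehicle control viability.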

## C=CCn1c(=O)c2cnc(Nc3ccc(N4CCN(C)CC4)cc3)nc2n1-c1cccc(C(C)(C)O)n1 + Cc1cccc(N(C)C(=O)C2C(O)CCN2c2nc(C)cc(C(F)(F)F)c2C#N)c1
Second compound 0.0316 µM
  IC50: > 1 µM
Second compound 0.1 µM
  IC50: > 1 µM
Second compound 0.316 µM
  IC50: > 1 µM
Second compound 1 µM
  IC50: > 1 µM
Second compound 3.16 µM
  IC50: > 1 µM
Second compound 10 µM
  IC50: > 1 µM
[1]
  viability, T/C: 103%
[2]
  viability, T/C: 114%
[3]
  viability, T/C: 103%
[4]
  viability, T/C: 115%
[5]
  viability, T/C: 101%
[6]
  viability, T/C: 93%
[7]
  viability, T/C: 108%
[8]
  viability, T/C: 110%
[9]
  viability, T/C: 107%
[10]
  viability, T/C: 102%
[11]
  viability, T/C: 108%
[12]
  viability, T/C: 90.1%
[13]
  viability, T/C: 115%
[14]
  viability, T/C: 103%
[15]
  viability, T/C: 98.1%
[16]
  viability, T/C: 119%
[17]
  viability, T/C: 108%
[18]
  viability, T/C: 102%
[19]
  viability, T/C: 99.1%
[20]
  viability, T/C: 101%
[21]
  viability, T/C: 96%
[22]
  viability, T/C: 97.6%
[23]
  viability, T/C: 110%
[24]
  viability, T/C: 94.2%
[25]
  viability, T/C: 100%
[26]
  viability, T/C: 101%
[27]
  viability, T/C: 98.4%
[28]
  viability, T/C: 101%
[29]
  viability, T/C: 103%
[30]
  viability, T/C: 98.3%
[31]
  viability, T/C: 98.8%
[32]
  viability, T/C: 110%
[33]
  viability, T/C: 99.5%
[34]
  viability, T/C: 106%
[35]
  viability, T/C: 105%
[36]
  viability, T/C: 95.2%

## CC[C@@]1(O)C(=O)OCc2c1cc1n(c2=O)Cc2cc3c(CN(C)C)c(O)ccc3nc2-1 + Cc1cccc(N(C)C(=O)C2C(O)CCN2c2nc(C)cc(C(F)(F)F)c2C#N)c1
Second compound 0.0316 µM
  IC50: > 0.1 µM
Second compound 0.1 µM
  IC50: > 0.1 µM
Second compound 0.316 µM
  IC50: > 0.1 µM
Second compound 1 µM
  IC50: > 0.1 µM
Second compound 3.16 µM
  IC50: > 0.1 µM
Second compound 10 µM
  IC50: > 0.1 µM
Second compound 0.0316 µM, first compound 0.000316 µM
  viability, T/C: 111%
Second compound 0.0316 µM, first compound 0.001 µM
  viability, T/C: 115%
[1]
  viability, T/C: 111%
[2]
  viability, T/C: 106%
[3]
  viability, T/C: 114%
[4]
  viability, T/C: 97.3%
Second compound 0.1 µM, first compound 0.000316 µM
  viability, T/C: 112%
Second compound 0.1 µM, first compound 0.001 µM
  viability, T/C: 111%
[7]
  viability, T/C: 94%
[8]
  viability, T/C: 118%
[9]
  viability, T/C: 105%
[10]
  viability, T/C: 92.8%
Second compound 0.316 µM, first compound 0.000316 µM
  viability, T/C: 117%
Second compound 0.316 µM, first compound 0.001 µM
  viability, T/C: 130%
[13]
  viability, T/C: 101%
[14]
  viability, T/C: 95.9%
[15]
  viability, T/C: 101%
[16]
  viability, T/C: 91.4%
Second compound 1 µM, first compound 0.000316 µM
  viability, T/C: 111%
Second compound 1 µM, first compound 0.001 µM
  viability, T/C: 114%
[19]
  viability, T/C: 109%
[20]
  viability, T/C: 118%
[21]
  viability, T/C: 110%
[22]
  viability, T/C: 81.5%
Second compound 3.16 µM, first compound 0.000316 µM
  viability, T/C: 101%
Second compound 3.16 µM, first compound 0.001 µM
  viability, T/C: 98.3%
[25]
  viability, T/C: 98.2%
[26]
  viability, T/C: 86.6%
[27]
  viability, T/C: 96.2%
[28]
  viability, T/C: 91.3%
Second compound 10 µM, first compound 0.000316 µM
  viability, T/C: 117%
Second compound 10 µM, first compound 0.001 µM
  viability, T/C: 120%
[31]
  viability, T/C: 108%
[32]
  viability, T/C: 97.5%
[33]
  viability, T/C: 90.8%
[34]
  viability, T/C: 77%

## CCc1c2c(nc3ccc(O)cc13)-c1cc3c(c(=O)n1C2)COC(=O)[C@]3(O)CC + Cc1cccc(N(C)C(=O)C2C(O)CCN2c2nc(C)cc(C(F)(F)F)c2C#N)c1
Second compound 0.0316 µM
  IC50: 0.067 µM
Second compound 0.1 µM
  IC50: 0.1 µM
Second compound 0.316 µM
  IC50: 0.175 µM
Second compound 1 µM
  IC50: 0.0723 µM
Second compound 3.16 µM
  IC50: 0.105 µM
Second compound 10 µM
  IC50: 0.153 µM
[1]
  viability, T/C: 103%
[2]
  viability, T/C: 91.3%
[3]
  viability, T/C: 48.6%
[4]
  viability, T/C: 53.7%
[5]
  viability, T/C: 36.3%
[6]
  viability, T/C: 27.8%
[7]
  viability, T/C: 96.7%
[8]
  viability, T/C: 119%
[9]
  viability, T/C: 67.2%
[10]
  viability, T/C: 57.1%
[11]
  viability, T/C: 36.1%
[12]
  viability, T/C: 28.4%
[13]
  viability, T/C: 97.6%
[14]
  viability, T/C: 96%
[15]
  viability, T/C: 73.4%
[16]
  viability, T/C: 60.1%
[17]
  viability, T/C: 41%
[18]
  viability, T/C: 33.6%
[19]
  viability, T/C: 111%
[20]
  viability, T/C: 111%
[21]
  viability, T/C: 64.3%
[22]
  viability, T/C: 50.6%
[23]
  viability, T/C: 48.7%
[24]
  viability, T/C: 32.5%
[25]
  viability, T/C: 109%
[26]
  viability, T/C: 92.5%
[27]
  viability, T/C: 70.4%
[28]
  viability, T/C: 53.5%
[29]
  viability, T/C: 33.9%
[30]
  viability, T/C: 36.6%
[31]
  viability, T/C: 108%
[32]
  viability, T/C: 81.5%
[33]
  viability, T/C: 67.9%
[34]
  viability, T/C: 53.2%
[35]
  viability, T/C: 46.2%
[36]
  viability, T/C: 24.5%

## Nc1ccn(C2OC(CO)C(O)C2(F)F)c(=O)n1 (stereo not drawn) + Cc1cccc(N(C)C(=O)C2C(O)CCN2c2nc(C)cc(C(F)(F)F)c2C#N)c1
Second compound 0.0316 µM
  IC50: 0.873 µM
Second compound 0.1 µM
  IC50: 1.31 µM
Second compound 0.316 µM
  IC50: 1.15 µM
Second compound 1 µM
  IC50: 1.91 µM
Second compound 3.16 µM
  IC50: 3.04 µM
Second compound 10 µM
  IC50: 2.03 µM
[3]
  viability, T/C: 85.6%
[4]
  viability, T/C: 74.6%
[5]
  viability, T/C: 57.2%
[6]
  viability, T/C: 48%
Second compound 0.0316 µM, first compound 3.16 µM
  viability, T/C: 52.4%
Second compound 0.0316 µM, first compound 10 µM
  viability, T/C: 42.4%
[9]
  viability, T/C: 99.4%
[10]
  viability, T/C: 66.4%
[11]
  viability, T/C: 60.6%
[12]
  viability, T/C: 62.4%
Second compound 0.1 µM, first compound 3.16 µM
  viability, T/C: 40.3%
Second compound 0.1 µM, first compound 10 µM
  viability, T/C: 41.5%
[15]
  viability, T/C: 82.6%
[16]
  viability, T/C: 70.5%
[17]
  viability, T/C: 54.9%
[18]
  viability, T/C: 52.6%
Second compound 0.316 µM, first compound 3.16 µM
  viability, T/C: 48.4%
Second compound 0.316 µM, first compound 10 µM
  viability, T/C: 38.5%
[21]
  viability, T/C: 75.6%
[22]
  viability, T/C: 63.8%
[23]
  viability, T/C: 53.1%
[24]
  viability, T/C: 50%
Second compound 1 µM, first compound 3.16 µM
  viability, T/C: 53.6%
Second compound 1 µM, first compound 10 µM
  viability, T/C: 46%
[27]
  viability, T/C: 69.2%
[28]
  viability, T/C: 64.2%
[29]
  viability, T/C: 54.7%
[30]
  viability, T/C: 54%
Second compound 3.16 µM, first compound 3.16 µM
  viability, T/C: 53.2%
Second compound 3.16 µM, first compound 10 µM
  viability, T/C: 45%
[33]
  viability, T/C: 80.2%
[34]
  viability, T/C: 70.3%
[35]
  viability, T/C: 63.5%
[36]
  viability, T/C: 49.6%
Second compound 10 µM, first compound 3.16 µM
  viability, T/C: 51.8%
Second compound 10 µM, first compound 10 µM
  viability, T/C: 41.5%
